{
  "source": "patent US20260000070A1",
  "about": "(priority 2023, published 2026)",
  "test_system": "endothelial cells / vascular system of perfused tissue",
  "data": [
    {"smiles": "CNCC(O)c1ccc(O)c(O)c1", "note": "(centres unmarked) [adrenaline]", "values": [
      {"measurement": "flow rate", "value": "decrease"},
      {"measurement": "pressure", "value": "increase"}
    ]}
  ]
}
